Assay results published in the supplement of paper PMC10307832.

How the values were obtained:
Test in all cases: relative viability (nuclei count vs DMSO), 5 days (fraction); higher = more cells survive
[1] = compound: COc1cc2nc(N3CCCN(C)CC3)nc(NC3CCN(Cc4ccccc4)CC3)c2cc1OC + Cc1nc(NC(=O)N2CCC[C@H]2C(N)=O)sc1-c1ccnc(C(C)(C)C(F)(F)F)c1 [Alpelisib] (partner 2 µM)
Method in brief: (§1)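 Nuclei were stained with Hoechst during a one-step fixation (final 0.05% Triton X-100, 1% formaldehyde, 1 ug/ml Hoechst) carried out 5 days after dosing, then counted on 4× images. The cells, lung cancer lines in 1536-well plates, had been dosed by pin tool the day after seeding with one drug alone or a fixed anchor-drug dose plus five library-drug doses (not always all listed) in √10 steps. Relative viability is the nuclei count in treated wells divided by that in vehicle wells, and each value is the median of duplicate plates.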

[2] = compound: COc1cc2nc(N3CCCN(C)CC3)nc(NC3CCN(Cc4ccccc4)CC3)c2cc1OC + Nc1ncn([C@H]2C[C@H](O)[C@@H](CO)O2)c(=O)n1 [Decitabine] (partner 2 µM)
Method in brief: as §1

AZD6482 + Lapatinib = compound: Cc1cc([C@@H](C)Nc2ccccc2C(=O)O)c2nc(N3CCOCC3)cc(=O)n2c1 [AZD6482] + CS(=O)(=O)CCNCc1ccc(-c2ccc3ncnc(Nc4ccc(OCc5cccc(F)c5)c(Cl)c4)c3c2)o1 [Lapatinib] (partner 2 µM)
Method in brief: as §1

AZD6482 + Alpelisib = compound: Cc1cc([C@@H](C)Nc2ccccc2C(=O)O)c2nc(N3CCOCC3)cc(=O)n2c1 [AZD6482] + Cc1nc(NC(=O)N2CCC[C@H]2C(N)=O)sc1-c1ccnc(C(C)(C)C(F)(F)F)c1 [Alpelisib] (partner 2 µM)
Method in brief: as §1

| Cell Line | relative viability ([1]; first compound 0.2 µM) | relative viability ([1]; first compound 0.6325 µM) | relative viability ([1]; first compound 2 µM) | relative viability ([1]; first compound 6.325 µM) | relative viability ([2]; first compound 0.2 µM) | relative viability ([2]; first compound 0.6325 µM) | relative viability ([2]; first compound 2 µM) | relative viability ([2]; first compound 6.325 µM) | relative viability (AZD6482 + Lapatinib; first compound 0.08 µM) | relative viability (AZD6482 + Lapatinib; first compound 0.253 µM) | relative viability (AZD6482 + Lapatinib; first compound 0.8 µM) | relative viability (AZD6482 + Lapatinib; first compound 2.53 µM) | relative viability (AZD6482 + Lapatinib; first compound 8 µM) | relative viability (AZD6482 + Alpelisib; first compound 0.08 µM) | relative viability (AZD6482 + Alpelisib; first compound 0.253 µM) | relative viability (AZD6482 + Alpelisib; first compound 0.8 µM) | relative viability (AZD6482 + Alpelisib; first compound 2.53 µM) | relative viability (AZD6482 + Alpelisib; first compound 8 µM) |
| --- | --- | --- | --- | --- | --- | --- | --- | --- | --- | --- | --- | --- | --- | --- | --- | --- | --- | --- |
| NCI-H1651 | 0.921 | 0.915 | 1.16 | 1.1 | 0.587 | 0.598 | 0.639 | 0.617 | 0.776 | 0.608 | 0.77 | 0.563 | 0.522 | 0.791 | 0.778 | 0.712 | 0.42 | 0.777 |
| NCI-H1666 | 0.924 | 0.993 | 0.951 | 0.461 | 0.597 | 0.805 | 0.658 | 0.729 | 0.283 | 0.616 | 0.556 | 0.517 | 0.417 | 0.609 | 0.748 | 0.751 | 0.64 | 0.738 |
| NCI-H1734 | 0.657 | 0.613 | 0.798 | 0.736 | 0.504 | 0.469 | 0.516 | 0.519 | 0.933 | 1.02 | 1.16 | 0.632 | 0.612 | 0.416 | 0.444 | 0.431 | 0.338 | 0.521 |
| NCI-H1755 | 0.979 | 0.844 | 0.916 | 0.871 | 0.657 | 0.669 | 0.689 | 0.663 | 0.955 | 0.969 | 1.03 | 0.704 | 0.749 | 0.695 | 0.719 | 0.547 | 0.336 | 0.435 |
| NCI-H1792 | 0.725 | 0.74 | 0.717 | 0.737 | 0.625 | 0.553 | 0.481 | 0.496 | 0.814 | 0.815 | 0.879 | 0.628 | 0.598 | 0.516 | 0.518 | 0.67 | 0.393 | 0.359 |
| NCI-H1793 | 0.677 | 0.722 | 0.812 | 0.785 | 0.499 | 0.476 | 0.465 | 0.571 | 0.559 | 0.368 | 0.565 |  | 0.321 | 0.537 | 0.519 | 0.48 |  | 0.406 |
| NCI-H1915 | 1.06 | 0.998 | 1.1 | 1.1 | 0.263 | 0.26 | 0.276 | 0.264 | 0.933 | 0.813 | 1.05 | 0.844 | 1.01 | 1.04 | 1.02 | 1.1 | 0.958 | 1.05 |
| NCI-H1944 | 0.822 | 0.909 |  | 0.912 | 0.465 | 0.505 | 0.391 | 0.455 | 0.85 | 0.863 | 0.926 | 0.527 | 0.564 | 0.6 | 0.518 | 0.6 | 0.421 | 0.51 |
| NCI-H1975 | 0.718 | 0.597 | 0.727 | 0.616 | 0.37 | 0.39 | 0.419 | 0.37 | 0.727 | 0.802 | 0.814 | 0.626 | 0.581 | 0.475 | 0.439 | 0.521 | 0.373 | 0.362 |
| NCI-H1993 | 0.668 | 0.637 | 0.692 | 0.662 | 0.566 | 0.522 | 0.58 | 0.568 | 0.779 | 0.791 |  |  | 0.784 | 0.701 | 0.653 |  |  | 0.767 |
| NCI-H2009 | 1.24 | 1.07 | 1.18 | 1.07 | 0.396 | 0.392 | 0.43 | 0.375 | 1.1 | 1 | 1.04 | 0.579 | 0.815 | 0.936 | 1.15 | 1.04 | 0.484 | 0.985 |
| NCI-H2023 | 0.661 | 0.634 | 0.714 | 0.331 | 0.226 | 0.218 | 0.25 | 0.114 | 0.729 | 0.74 | 0.798 | 0.424 | 0.422 | 0.389 | 0.427 | 0.449 | 0.267 | 0.32 |
| NCI-H2085 | 1.06 | 0.972 | 1 | 0.799 | 0.53 | 0.531 | 0.594 | 0.559 | 0.42 | 0.407 | 0.457 | 0.366 | 0.372 | 0.426 | 0.409 | 0.351 | 0.34 | 0.409 |
| NCI-H2087 | 1.15 | 1.2 | 1.27 | 1.05 | 0.318 | 0.261 | 0.219 | 0.212 | 1.22 | 1.12 | 1.43 | 0.864 | 0.98 | 0.953 | 1.06 | 1.17 | 0.819 | 0.972 |
| NCI-H2126 | 0.83 | 0.734 | 0.761 | 0.717 | 0.577 | 0.55 | 0.561 | 0.567 | 0.635 | 0.644 | 0.636 | 0.519 | 0.49 | 0.608 | 0.569 | 0.606 | 0.476 | 0.559 |
| NCI-H2170 | 0.838 | 0.805 | 0.851 | 0.835 | 0.487 | 0.454 | 0.49 | 0.46 | 0.245 | 0.249 | 0.303 | 0.248 | 0.295 | 0.662 | 0.666 | 0.713 | 0.56 | 0.681 |
| NCI-H2347 | 0.929 | 1.02 | 1.03 | 0.831 | 0.586 | 0.617 | 0.615 | 0.606 |  | 0.946 | 0.988 | 0.653 | 0.763 |  | 0.743 | 0.891 | 0.514 | 0.719 |
| NCI-H2405 | 0.784 | 0.772 | 0.835 | 0.632 | 0.706 | 0.745 | 0.784 | 0.729 | 0.69 |  | 1.12 | 0.627 | 0.483 | 0.354 |  | 0.603 | 0.384 | 0.556 |
